This is an account of results in ChEMBL document CHEMBL1201862, “PubChem BioAssay data set” (2004).

Structures are written as SMILES.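 Dose response: 5 concentrations. Exposure: 48 h. Format: 96-well plates. Endpoint: linear interpolation; highest concentration if not reached. At the GI50, growth is halved.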 Calls of active or inactive are those of the source. No stated cut-off is given here; in the data, active = GI50 up to about 1.1 µM and inactive = higher.

Test systems include RPMI-8226; NCI-H522; TK-10; NCI/ADR-RES; NCI-H460; SR; MDA-MB-231; HCT-15; Hs-578T; CAKI-1; HCT-116; DU-145; HCC 2998; OVCAR-3; MOLT-4; BT-549; CCRF-CEM; OVCAR-4; UACC-62; SK-MEL-5.
Experiment in all cases: NCI anticancer screen, dose series, 48 h

Take `N#CCCN(CCC#N)c1ccc(/C=C2\SC(=S)NC2=O)cc1`: the GI50 was > 100 µM (inactive) in the assay with RPMI-8226; > 100 µM (inactive) in the assay with NCI-H522; 85.3 µM (inactive) in the assay on TK-10; > 100 µM (inactive) in the assay with NCI/ADR-RES; > 100 µM (inactive) in the assay with NCI-H460; > 100 µM (inactive) in the assay with SR. For the same molecule, the GI50 in the assay on MDA-MB-231 is 30.3 µM (inactive); in the assay with HCT-15, greater than 100 µM; in the assay on Hs-578T, > 100 µM (inactive); in the assay with CAKI-1 it was 23 µM (inactive); with HCT-116, > 100 µM (inactive); in the assay on DU-145, > 100 µM (inactive). The GI50 in the assay with HCC 2998 is > 100 µM (inactive); with OVCAR-3 it was > 100 µM (inactive); with MOLT-4 it was > 100 µM (inactive); in the assay on BT-549, 31.8 µM (inactive); in the assay with CCRF-CEM it was > 100 µM (inactive); in the assay with OVCAR-4 it was 30.8 µM (inactive). Further, the GI50 in the assay with UACC-62 and in the assay on SK-MEL-5 was > 100 µM (inactive) in each case.

`C=C1C(=O)C2=CC1CCC(=O)C1(C)CCC(OC(C)=O)C(C)(C)C1CC2O` (centres undefined): the GI50 was 2.53 µM (inactive) in the assay on RPMI-8226; 0.522 µM (active) in the assay with NCI-H522; 5.86 µM (inactive) in the assay with TK-10; 4.11 µM (inactive) with NCI/ADR-RES; 1.63 µM (inactive) in the assay with NCI-H460; 0.347 µM (active) with SR. The GI50 with MDA-MB-231 is 4.65 µM (inactive); in the assay on HCT-15 it was 0.552 µM; with Hs-578T it was 3.58 µM (inactive); in the assay on CAKI-1, 1.76 µM (inactive); in the assay with HCT-116, 1.6 µM (inactive); in the assay on DU-145 it was 3.03 µM (inactive). Also, the GI50 was 1.95 µM (inactive) in the assay with HCC 2998; 3.73 µM (inactive) with OVCAR-3; 0.661 µM (active) with MOLT-4; 3.08 µM (inactive) in the assay with BT-549; 0.392 µM (active) in the assay on CCRF-CEM; 2.17 µM (inactive) in the assay on OVCAR-4. The values for the GI50 in the assay on UACC-62 and with SK-MEL-5 were 2.27 µM (inactive) and 1.82 µM (inactive), respectively.

For the molecule `O=C(Nc1ccccc1)N1CCN(C(=O)Nc2ccccc2)C1=S`, the GI50 was > 100 µM (inactive) in the assay on RPMI-8226; 90.2 µM (inactive) in the assay with NCI-H522; 38.5 µM (inactive) in the assay on TK-10; 41.9 µM (inactive) in the assay with NCI/ADR-RES; 65 µM (inactive) in the assay on NCI-H460; > 100 µM (inactive) with SR. Further, the GI50 is > 100 µM (inactive) in the assay with MDA-MB-231; 88.5 µM in the assay with HCT-15; 35.9 µM (inactive) in the assay with Hs-578T; 41.7 µM (inactive) with CAKI-1; 47.6 µM (inactive) in the assay on HCT-116; > 100 µM (inactive) in the assay with DU-145. Besides, the GI50 in the assay on HCC 2998 was > 100 µM (inactive); in the assay with OVCAR-3, > 100 µM (inactive); in the assay on MOLT-4, > 100 µM (inactive); in the assay with BT-549, 30.4 µM (inactive); in the assay with CCRF-CEM, 97.7 µM (inactive); in the assay on OVCAR-4, 55.7 µM (inactive). Further, the GI50 in the assay with SK-MEL-5 was > 100 µM (inactive).

Consider `C/C1=C\[C@@H](O)C(=O)/C=C/C=C\c2csc(n2)[C@@H](C)NC(=O)C[C@@]2(CC1)[S+]([O-])SC(=O)[C@]2(C)O` (some centres undefined) [LEINAMYCIN], for which the GI50 in the assay with RPMI-8226 is 0.00445 µM (active); with NCI-H522, 0.00188 µM (active); in the assay with TK-10 it was 0.0266 µM (active); with NCI/ADR-RES, 0.0137 µM (active); in the assay on NCI-H460 it was 0.00986 µM (active); with SR it was 0.00327 µM (active). The GI50 in the assay with MDA-MB-231 was 0.0321 µM (active); with HCT-15, 0.0134 µM; in the assay on Hs-578T, 0.0337 µM (active); in the assay on CAKI-1, 0.00133 µM (active); with DU-145, 0.00679 µM (active); in the assay with HCC 2998, 0.184 µM (active). The GI50 with OVCAR-3 was 0.0112 µM (active); in the assay with MOLT-4 it was 0.00486 µM (active); in the assay with BT-549, 0.00151 µM (active); in the assay on CCRF-CEM it was 0.00105 µM (active); in the assay on OVCAR-4, 0.0217 µM (active); with UACC-62, 0.0124 µM (active). Also, the GI50 with SK-MEL-5 is 0.00673 µM (active).

Take `Cc1nc(Cl)c2sc(=S)n(-c3ccc(F)cc3)c2n1`: the GI50 is 3.4 µM (inactive) in the assay on RPMI-8226; 2.84 µM (inactive) with NCI-H522; 1.99 µM (inactive) in the assay on TK-10; 6.56 µM (inactive) in the assay with NCI/ADR-RES; 13.7 µM (inactive) with NCI-H460; 1.39 µM (inactive) in the assay on SR. Besides, the GI50 in the assay with MDA-MB-231 is 7.98 µM (inactive); in the assay on HCT-15 it was 3.21 µM; in the assay on Hs-578T, 1.86 µM (inactive); with CAKI-1, 1.56 µM (inactive); in the assay with HCT-116 it was 1.75 µM (inactive); in the assay with DU-145 it was 1.51 µM (inactive). Further, the GI50 in the assay on HCC 2998 is 4.49 µM (inactive); in the assay with OVCAR-3, 1.94 µM (inactive); in the assay on BT-549, 2.59 µM (inactive); in the assay on CCRF-CEM it was 2.72 µM (inactive); in the assay with OVCAR-4, 13.6 µM (inactive); in the assay on UACC-62, 11.8 µM (inactive). The GI50 with SK-MEL-5 was 3.04 µM (inactive).

Take `Cc1ccc(CC(Cc2ccccc2C)C(=O)O)c(C(=O)O)c1` (centres undefined): the GI50 in the assay with RPMI-8226, in the assay on NCI-H522, in the assay on TK-10, in the assay on NCI/ADR-RES, in the assay on NCI-H460 and in the assay with SR was > 100 µM (inactive) each time. For the same molecule, the GI50 in the assay with MDA-MB-231 was > 100 µM (inactive); in the assay with HCT-15, greater than 100 µM; in the assay on Hs-578T, > 100 µM (inactive); in the assay on CAKI-1, > 100 µM (inactive); in the assay on HCT-116, > 100 µM (inactive); in the assay with DU-145, > 100 µM (inactive). The GI50 in the assay with HCC 2998, with OVCAR-3, with MOLT-4, in the assay on BT-549, in the assay with CCRF-CEM and in the assay on OVCAR-4 was > 100 µM (inactive) each time. Also, the GI50 with SK-MEL-5 was > 100 µM (inactive).

For `Cc1c(-c2ccccc2)c(C#N)c2nnn(-c3cccc(Cl)c3)c(=O)n12`, the GI50 was 42.5 µM (inactive) in the assay with RPMI-8226; 47.8 µM (inactive) in the assay on NCI-H522; > 100 µM (inactive) in the assay on TK-10; > 100 µM (inactive) with NCI/ADR-RES; > 100 µM (inactive) in the assay on NCI-H460; 12.6 µM (inactive) in the assay on SR. For the same molecule, the GI50 with MDA-MB-231 is 25.1 µM (inactive); in the assay on HCT-15, 41.1 µM; with Hs-578T it was > 100 µM (inactive); in the assay on CAKI-1, > 100 µM (inactive); in the assay with HCT-116, 70 µM (inactive); in the assay on DU-145, 68.9 µM (inactive). Further, the GI50 with HCC 2998 was 78.7 µM (inactive); in the assay with OVCAR-3, 43 µM (inactive); with BT-549 it was 88.7 µM (inactive); in the assay on CCRF-CEM it was 28.1 µM (inactive); in the assay on OVCAR-4 it was 76.2 µM (inactive); in the assay with UACC-62, > 100 µM (inactive). Moreover, the GI50 in the assay with SK-MEL-5 is 71.1 µM (inactive).

As to `CC(O)c1cc2c(s1)C(=O)c1ccsc1C2=O` (centres undefined), the GI50 with RPMI-8226 was 0.123 µM (active); with NCI-H522, 0.117 µM (active); with TK-10 it was 0.461 µM (active); with NCI/ADR-RES, 0.211 µM (active); in the assay with SR, 0.103 µM (active); in the assay with MDA-MB-231 it was 0.0964 µM (active). For the same molecule, the GI50 is 0.0409 µM with HCT-15; 0.107 µM (active) in the assay with Hs-578T; 0.695 µM (active) with CAKI-1; 0.21 µM (active) in the assay with HCT-116; 0.0489 µM (active) in the assay on DU-145; 0.223 µM (active) with HCC 2998. Moreover, the GI50 in the assay on OVCAR-3 was 0.0522 µM (active); in the assay with MOLT-4, 0.213 µM (active); with BT-549, 0.0815 µM (active); in the assay on CCRF-CEM it was 0.259 µM (active); with OVCAR-4, 0.212 µM (active); in the assay with UACC-62, 0.0262 µM (active). Besides, the GI50 in the assay on SK-MEL-5 was < 0.0122 µM (active).
